Source: US4443436A, “C-20-Modified macrolide derivatives of the macrolide antibiotics tylosin, desmycosin, macrocin, and lactenocin” (Eli Lilly and Company, priority 1982, dated 1984)
Converted amounts (≈) assume the structure as drawn. Where two headings read alike, the source gives them in different places.

Tests used:
Format in all cases: cell-based
[1] = system: Staphylococcus aureus X1.1; experiment: MIC, standard agar-dilution assay, Staphylococcus aureus X1.1
[2] = system: Staphylococcus aureus V41; experiment: MIC, standard agar-dilution assay, Staphylococcus aureus V41
[3] = system: Staphylococcus aureus X400; experiment: MIC, standard agar-dilution assay, Staphylococcus aureus X400
[4] = system: Staphylococcus aureus S13E; experiment: MIC, standard agar-dilution assay, Staphylococcus aureus S13E; conditions: Staphylococcus aureus, S13E
[5] = system: Staphylococcus epidermidis EPI1; experiment: MIC, standard agar-dilution assay, Staphylococcus epidermidis EPI1
[6] = system: Staphylococcus epidermidis EPI2; experiment: MIC, standard agar-dilution assay, Staphylococcus epidermidis EPI2
[7] = system: Streptococcus pyogenes C203; experiment: MIC, standard agar-dilution assay, Streptococcus pyogenes C203; conditions: Streptococcus pyogenes C203; agar dilution; read-out: MIC
[8] = system: Streptococcus pneumoniae Park I; experiment: microbe, parasite or virus in culture
[9] = system: Streptococcus Group D X66; experiment: MIC, standard agar-dilution assay, Streptococcus Group D X66; conditions: Streptococcus Group D X66; agar dilution; read-out: MIC
Streptococcus Group 9960 = experiment: MIC, standard agar-dilution assay, Streptococcus Group 9960; conditions: GROUP9960; Streptococcus Group 9960; agar dilution; read-out: MIC
[10] = system: Haemophilus influenzae Holt; experiment: MIC, standard agar-dilution assay, Haemophilus influenzae Holt
[11] = system: Haemophilus influenzae R252; experiment: MIC, standard agar-dilution assay, Haemophilus influenzae R252
Staphylococcus aureus = experiment: MIC, broth-dilution microtiter test, Staphylococcus aureus
Text: (§1) The MIC's in Table X were obtained using conventional broth-dilution microtiter tests.

Streptococcus bovis 80 = experiment: MIC, broth-dilution microtiter test, Streptococcus bovis 80; conditions: Streptococcus equinus; Streptococcus bovis 80; broth-dilution microtiter; read-out: MIC
Text: as §1

[12] = system: Pasteurella multocida 17E; experiment: MIC, broth-dilution microtiter test, Pasteurella multocida 17E; conditions: Pasteurella multocida 17E; bovine isolate; broth-dilution microtiter; read-out: MIC
Text: as §1

[13] = system: Pasteurella multocida 60A; experiment: MIC, broth-dilution microtiter test, Pasteurella multocida 60A; conditions: Pasteurella multocida 60A; avian isolate; broth-dilution microtiter; read-out: MIC
Text: as §1

[14] = system: Pasteurella hemolytica 22C; experiment: MIC, broth-dilution microtiter test, Pasteurella hemolytica 22C; conditions: Pasteurella hemolytica 22C; broth-dilution microtiter; read-out: MIC
Text: as §1

Mycoplasma gallisepticum = experiment: MIC, broth-dilution microtiter test, Mycoplasma gallisepticum; conditions: Mycoplasmoides gallisepticum
Text: as §1

Mycoplasma synoviae = experiment: MIC, broth-dilution microtiter test, Mycoplasma synoviae; conditions: Mycoplasmopsis synoviae
Text: as §1

Mycoplasma hyorhinis = experiment: MIC, broth-dilution microtiter test, Mycoplasma hyorhinis
Text: as §1

Mycoplasma hyopneumoniae = experiment: MIC, broth-dilution microtiter test, Mycoplasma hyopneumoniae; conditions: Mesomycoplasma hyopneumoniae; Mycoplasma hyopneumoniae; broth-dilution microtiter; read-out: MIC
Text: as §1

[15] = Staphylococcus epidermidis, EPI1
[16] = Streptococcus pneumoniae Park I, agar dilution, read-out: MIC
[17] = Haemophilus influenzae Holt, ampicillin-sensitive strain, read-out: MIC
[18] = Haemophilus influenzae R252, ampicillin-resistant strain, read-out: MIC
[19] = Mycoplasma hyorhinis, broth-dilution microtiter, read-out: MIC
[20] = Staphylococcus aureus X400, methicillin-resistant strain, agar dilution, read-out: MIC
[21] = Staphylococcus epidermidis, EPI2
[22] = Mycoplasma gallisepticum, broth-dilution microtiter, read-out: MIC
[23] = Mycoplasma synoviae, broth-dilution microtiter, read-out: MIC

CCC1OC(=O)CC(O)C(C)C(OC2OC(C)C(OC3CC(C)(O)C(O)C(C)O3)C(N(C)C)C2O)C(CCOC(C(F)(F)F)C(F)(F)F)CC(C)C(=O)C=CC(C)=CC1COC1OC(C)C(O)C(OC)C1OC (stereo not drawn) [Compound 19, 20-DH-20-O-[2,2,2-Trifluoro-1-(trifluormethyl)ethyl]tylosin]
MIC ([1]; Staphylococcus aureus, X1.1): 4 µg/mL (≈ 3.74 µM)
MIC ([2]; Staphylococcus aureus, V41): 4 µg/mL (≈ 3.74 µM)
MIC ([3]; Staphylococcus aureus, X400): 4 µg/mL (≈ 3.74 µM)
MIC [4]: 4 µg/mL (≈ 3.74 µM)
MIC [5, 15]: 4 µg/mL (≈ 3.74 µM)
MIC ([6]; Staphylococcus epidermidis EPI2, agar dilution, read-out: MIC): 2 µg/mL (≈ 1.87 µM)
MIC [7]: 8 µg/mL (≈ 7.49 µM)
MIC [8, 16]: 32 µg/mL (≈ 30 µM)
MIC [9]: > 128 µg/mL
MIC (Streptococcus Group 9960): > 128 µg/mL
MIC [10, 17]: > 128 µg/mL
MIC [11, 18]: > 128 µg/mL
MIC (Staphylococcus aureus): 12.5 µg/mL (≈ 11.7 µM)
MIC (Streptococcus bovis 80): > 50 µg/mL
MIC [12]: > 50 µg/mL
MIC [13]: > 50 µg/mL
MIC [14]: > 50 µg/mL
MIC (Mycoplasma gallisepticum): 3.12 µg/mL (≈ 2.92 µM)
MIC (Mycoplasma synoviae): 12.5 µg/mL (≈ 11.7 µM)
MIC (Mycoplasma hyorhinis; [19]): > 50 µg/mL
MIC (Mycoplasma hyopneumoniae): > 25 µg/mL

CCC1OC(=O)CC(O)C(C)C(OC2OC(C)C(OC3CC(C)(O)C(O)C(C)O3)C(N(C)C)C2O)C(CCOc2cccc(N(C)C)c2)CC(C)C(=O)C=CC(C)=CC1COC1OC(C)C(O)C(OC)C1OC (stereo not drawn) [Compound 16, 20-DH-20-O-[m-(N,N-Dimethylamino)phenyl]tylosin]
MIC ([1]; Staphylococcus aureus, X1.1): 1 µg/mL (≈ 0.964 µM)
MIC ([2]; Staphylococcus aureus, V41): 1 µg/mL (≈ 0.964 µM)
MIC [3, 20]: 2 µg/mL (≈ 1.93 µM)
MIC [4]: 1 µg/mL (≈ 0.964 µM)
MIC [5, 15]: 1 µg/mL (≈ 0.964 µM)
MIC [6, 21]: 1 µg/mL (≈ 0.964 µM)
MIC [7]: 1 µg/mL (≈ 0.964 µM)
MIC [8, 16]: 8 µg/mL (≈ 7.71 µM)
MIC [9]: 64 µg/mL (≈ 61.7 µM)
MIC (Streptococcus Group 9960): > 128 µg/mL
MIC ([10]; Haemophilus influenzae): 128 µg/mL (≈ 123 µM)
MIC [11, 18]: > 128 µg/mL
MIC (Staphylococcus aureus; broth-dilution microtiter, read-out: MIC): 1.56 µg/mL (≈ 1.5 µM)
MIC (Streptococcus bovis 80): 50 µg/mL (≈ 48.2 µM)
MIC [12]: > 50 µg/mL
MIC [13]: > 50 µg/mL
MIC [14]: > 50 µg/mL
MIC (Mycoplasma gallisepticum; [22]): 1.56 µg/mL (≈ 1.5 µM)
MIC (Mycoplasma synoviae; [23]): 6.25 µg/mL (≈ 6.03 µM)
MIC (Mycoplasma hyorhinis; Mycoplasma): 50 µg/mL (≈ 48.2 µM)
MIC (Mycoplasma hyopneumoniae): > 25 µg/mL

CCC1OC(=O)CC(O)C(C)C(OC2OC(C)C(OC3CC(C)(O)C(O)C(C)O3)C(N(C)C)C2O)C(CCOc2ccc(OC)cc2)CC(C)C(=O)C=CC(C)=CC1COC1OC(C)C(O)C(OC)C1OC (stereo not drawn) [Compound 14, 20-DH-20-O-(p-Methoxyphenyl)tylosin]
MIC ([1]; Staphylococcus aureus X1.1, agar dilution, read-out: MIC): 0.5 µg/mL (≈ 0.488 µM)
MIC ([2]; Staphylococcus aureus V41, penicillin-resistant strain, agar dilution, read-out: MIC): 0.5 µg/mL (≈ 0.488 µM)
MIC [3, 20]: 2 µg/mL (≈ 1.95 µM)
MIC [4]: 1 µg/mL (≈ 0.976 µM)
MIC ([5]; Staphylococcus epidermidis EPI1, agar dilution, read-out: MIC): 2 µg/mL (≈ 1.95 µM)
MIC [6, 21]: 1 µg/mL (≈ 0.976 µM)
MIC [7]: 1 µg/mL (≈ 0.976 µM)
MIC [8, 16]: 8 µg/mL (≈ 7.81 µM)
MIC [9]: 128 µg/mL (≈ 125 µM)
MIC (Streptococcus Group 9960): 128 µg/mL (≈ 125 µM)
MIC ([10]; Haemophilus influenzae): 128 µg/mL (≈ 125 µM)
MIC ([11]; Haemophilus influenzae, R252): > 128 µg/mL
MIC (Staphylococcus aureus): 1.56 µg/mL (≈ 1.52 µM)
MIC (Streptococcus bovis 80): 25 µg/mL (≈ 24.4 µM)
MIC [12]: > 50 µg/mL
MIC [13]: > 50 µg/mL
MIC [14]: > 50 µg/mL
MIC (Mycoplasma gallisepticum; [22]): 0.78 µg/mL (≈ 0.762 µM)
MIC (Mycoplasma synoviae; [23]): 6.25 µg/mL (≈ 6.1 µM)
MIC (Mycoplasma hyorhinis; [19]): > 50 µg/mL
MIC (Mycoplasma hyopneumoniae): > 25 µg/mL

CCC1OC(=O)CC(O)C(C)C(OC2OC(C)C(OC3CC(C)(O)C(O)C(C)O3)C(N(C)C)C2O)C(CCF)CC(C)C(=O)C=CC(C)=CC1COC1OC(C)C(O)C(OC)C1OC (stereo not drawn) [Compound 8, 20-DH-DO-20-Fluoro-tylosin]
MIC ([1]; Staphylococcus aureus, X1.1): 1 µg/mL (≈ 1.09 µM)
MIC ([2]; Staphylococcus aureus, V41): 1 µg/mL (≈ 1.09 µM)
MIC ([3]; Staphylococcus aureus, X400): 2 µg/mL (≈ 2.17 µM)
MIC [4]: 1 µg/mL (≈ 1.09 µM)
MIC [5, 15]: 1 µg/mL (≈ 1.09 µM)
MIC [6, 21]: 1 µg/mL (≈ 1.09 µM)
MIC [7]: 4 µg/mL (≈ 4.35 µM)
MIC ([8]; Streptococcus pneumoniae): 64 µg/mL (≈ 69.6 µM)
MIC [9]: > 128 µg/mL
MIC (Streptococcus Group 9960): > 128 µg/mL
MIC [10, 17]: > 128 µg/mL
MIC ([11]; Haemophilus influenzae, R252): 128 µg/mL (≈ 139 µM)
MIC (Staphylococcus aureus): 1.56 µg/mL (≈ 1.7 µM)
MIC (Streptococcus bovis 80): > 50 µg/mL
MIC [12]: > 50 µg/mL
MIC [13]: > 50 µg/mL
MIC [14]: > 50 µg/mL
MIC (Mycoplasma gallisepticum): 1.56 µg/mL (≈ 1.7 µM)
MIC (Mycoplasma synoviae; [23]): 12.5 µg/mL (≈ 13.6 µM)
MIC (Mycoplasma hyorhinis; [19]): > 50 µg/mL
MIC (Mycoplasma hyopneumoniae): > 25 µg/mL
